6 molecules from article PMC9016803, “Mitochondria-targeted half-sandwich iridium(III)-Cp*-arylimidazophenanthroline complexes as antiproliferative and bioimaging agents against triple negative breast cancer cells MDA-MB-468” (RSC Advances, 2022) can be followed below.

In data set [1] the test system is MDA-MB-468 cells. Briefly: MTT in vitro cytotoxicity assay, triple negative breast cancer cells. Conditions: MDA-MB-468, MTT, 48 h. It is filed as cell-based. As to the method: The in vitro cytotoxicity of complexes IrL1–IrL5 and cisplatin were investigated using the typical 3-(4,5-dimethylthiazol-2-yl)-2,5-diphenyltetrazolium bromide (MTT) assay protocol against a panel of triple negative cancer cell line MDA-MB-468. The cells were initially incubated with the all test compounds at concentrations ranging from 0.5–50 μM for 48 h in vitro.
Cytotoxicity study of all the synthesized compounds against triple negative breast cancer cells MDA-MB-468 and immortalized human keratinocyte cell line HaCaT were done with a drug incubation period of 48 h by following standard procedure that were mentioned in ESI. ^† Preliminary studies were done to understand the mode of action of the complex to induce cytotoxicity using flow cytometric methods.
For doing the cell culture the cells were retained in DMEM media (Gibco), added with 10% fetal bovine serum (Himedia, India), 1% penicillin and streptomycin and 1% of Glutmax (Gibco, Thermo Scientific, USA) at 37°C in 5% CO2. When the cells attained 70%-80% confluency they were trypsinized using 0.25% trypsin-EDTA (Thermo Fisher Scientific, […]
In vitro cytotoxicity study was measured by standard MTT assay protocol.1 First the prepared complexes (IrL1-IrL5) were dissolved in 0.1% DMSO followed by dilution with DMEM medium. One cancer cell lines i.e. triple negative breast cancer cells (MDA-MB-468) and one normal cell line i.e. immortalized human keratinocyte cell line (HaCaT) were used for this assay. Approximately 1×10^4 cells per well were cultured in 100 μl of a growth medium in 96-well plates and then incubated under 5% CO2 atmosphere at 37°C temperature. Then the incubated cells were treated with different concentrations of the complexes in the volume of […]. The cisplatin was taken as standard positive control for this experiment. The Cells which were in the control wells, also engaged the same volume of medium containing 0.1% DMSO. After 48 h, the medium was superfluous and cell cultures were again incubated with 100 μL of MTT reagent (1 mg/ml) for 5 h at 37 °C. Then the resultant suspension was kept on micro vibrator for 10 min and the absorbance was recorded at λ = 570 nm in ELISA plate reader. The experiment was also performed in triplicate. The data were represented as the growth inhibition percentage i.e. % growth inhibition = 100 − [(AD × 100)/AB], where AD, measured absorbance in wells which contain samples and AB, measured absorbance for blank wells (cells with a medium and a vehicle). […]

The nature of the next data set: Solubility study. It is filed as physicochemical. Conditions: DMSO-10% DMEM medium (1 : 99 v/v, comparable to cell media). As to the method: (§1) Both hydrophilicity and lipophilicity studies were performed to determine the tumour-inhibiting potential of the metal complexes. These complexes were highly soluble in DMSO and moderately soluble in H2O, MeOH, EtOH and CH3CN. […] The lipophilicity of these complexes was determined by performing an n-octanol/water partition coefficient (log Po/w, where Po/w = the octanol/water partition coefficient) study using the shake flask method (Table 1).[24] The experimental log Po/w values of these complexes were determined to be in the range of 0.27–0.34 (Table 1). […] This change in the electrolytic behaviour of the complexes from 1 : 1 to 1 : 2 can be attributed to the dissociation of the Ir–Cl bond and subsequent aquation of the complexes.

Data set [2] is described as follows: n-Octanol/water partition coefficient, shake flask method. The data set is classed as physicochemical. As to the method: as §1, with “the complexes. […]” for “the complexes.”
n-Octanol–water partition coefficient (log P o/w)9
The log Po/w of the iridium complexes were adhering to shake flask method using the previously published procedure. A known amount of each complex (IrL1-IrL5) was suspended in water (pre-saturated with n-octanol) and shaken for 48 h on an orbital shaker.
To allow the phase separation, the solution was centrifuged for 10 min at 3000 rpm. To obtain the partition coefficient, different ratios (0.5: 1, 1: 1, and 2: 1) of the saturated solutions were shaken with pre-saturated n-octanol for 20 min on an orbital shaker and followed the same procedure. Aliquots of the aqueous and octanol layers were pipetted out separately and the absorbances were measured with UV-Vis spectrophotometer using proper dilution. Each set was performed in triplicate, concentration of the substances in each layer was calculated using the respective molar extinction coefficients and the partition coefficient (log P o/w) values were obtained from the ratio.

For data set [3], the system named is MDA-MB-468 cells. Briefly: Mitochondrial membrane potential, JC-1 staining, flow cytometry. The data set is classed as cell-based. To be noted: positive control. As for the experimental part: The cells treated with the mitochondrial uncoupler CCCP (carbonyl cyanide m-chlorophenylhydrazone), which mediates the dissipation of mitochondrial membrane potential, served as positive control for the detection of mitochondrial dysfunction. […] Unstained control represented in Fig. 10A has been used for gating purposes. […]

The subject of data set [4] is MDA-MB-468 cells. Briefly: ROS generation, DCFDA staining. To be noted: positive control. It is filed as cell-based. As to the method: Our results indicated a dose dependent increase in ROS production in the MDA-MB-468 cells treated with IrL1 concentrations 1 μM and 3 μM. The extent of ROS production is indicated by the 2′,7′-dichlorofluorescein (DCF) formed by the deacetylation and subsequent oxidation of 2′,7′-dichlorofluorescin diacetate (DCFDA) through cellular esterases and ROS. […] ROS production was absent in untreated control. However, in the positive control, treated with H2O2, ROS production was high which is ∼99% (Fig. 11).
Colocalization study and ROS generation studies were performed using live cell lines in their log phase.

The IC50 is the midpoint of a concentration-inhibition curve. Low readings indicate greater potency in that assay, high ones weaker potency in that assay. By Solubility is commonly meant the dissolved amount per volume that the medium holds. A lower Solubility goes with a poorly soluble substance. For the molecule “[Iridium(III)-Cp*-3-(1H-imidazo[4,5-f][1,10]phenanthrolin-2-yl)-4H-chromen-4-one]PF6 [IrL3]”, the IC50 with MDA-MB-468 cells [1] was found to be 20.3 µM. The Solubility in “Solubility study” worked out at 1200 µM. The “log P (n-octanol/water partition coefficient)” value in data set [2] is given as −0.23 ± 0.2.
With “[Iridium(III)-Cp*-2-((3aR,7aR)-3a,7a-dihydro-1H-indol-3-yl)-1H-imidazo[4,5-f][1,10]phenanthroline]PF6 [IrL4]”, in the data set on MDA-MB-468 cells [1], the IC50 was determined as 5.2 µM. In addition, the Solubility in “Solubility study” is 900 µM. The “log P (n-octanol/water partition coefficient)” value in data set [2] is listed as 0.02 ± 0.05.
In the case of “[Iridium(III)-Cp*-2-(anthracen-1-yl)-1H-imidazo[4,5-f][1,10]phenanthroline]PF6 [IrL2]”, the IC50 in the data set on MDA-MB-468 cells [1] was found to be 20.4 µM. In addition, the Solubility in the data set “Solubility study” came out at 600 µM. For the same molecule, in data set [2], the “log P (n-octanol/water partition coefficient)” value is listed as 0.34 ± 0.07.
Take `N#CC(C#N)=NNc1cccc(Cl)c1` [CCCP, carbonyl cyanide m-chlorophenylhydrazone, reference compound]: in the data set on MDA-MB-468 cells [3], the “cells retaining healthy mitochondria (JC-1 aggregates)” value is listed as roughly 20% and the “cells with damaged mitochondria (JC-1 monomers)” value is roughly 79%.
The molecule “[Iridium(III)-Cp*-2-((3aR,7aR)-3a,7a-dihydrobenzo[b]thiophen-2-yl)-1H-imidazo[4,5-f][1,10]phenanthroline]PF6 [IrL5]” gave an IC50 in the data set on MDA-MB-468 cells [1] of 4.41 µM. Besides, the Solubility in “Solubility study” is 700 µM. Besides, the “log P (n-octanol/water partition coefficient)” value in data set [2] amounted to 0.29 ± 0.08.
On to `OO` [H2O2, reference compound], for which, in the data set on MDA-MB-468 cells [4], the ROS production is recorded as roughly 99%.
